Format in all cases: cell-based
The subject of assay [1] is Pseudomonas aeruginosa lacking OprM, plasmid with OprM (D102C). The assay can be described thus: Drug sensitivity (MIC), OprM (D102C). On the procedure:
(§1) Mutant protein was prepared in which 20 amino acid residues were replaced by cysteine residues, respectively, in E1 and E2 domains of the amino acid sequence of mature OprM protein as above. First, OprM gene was introduced into pUCP20 as a vector. This vector is a shuttle vector which works in Escherichia coli and Pseudomonas aeruginosa. Specific mutation was introduced to OprM gene by using regular mutation introducing kit, and resultant vector was transformed into E. coli. The resultant E. coli was cultured to prepare plasmid, and the sequence of the plasmid was determined to confirm that the mutation was successfully introduced.
(§2) Next, the plasmid was introduced into the Pseudomonas aeruginosa lacking OprM, and the drug sensitivity of the resultant bacteria was determined to evaluate the pump function thereof. Drug sensitivity might be enhanced if the function of the pump was inhibited. Drug sensitivity was indicated by minimum inhibitory concentration (MIC). Aztreonam (AZT) (β-1 lactam antibiotic) and nalidixic acid (NA) (qunolone antibiotic) were used as drugs.

Assay [2] concerns Pseudomonas aeruginosa lacking OprM, plasmid with OprM (S104C). The assay can be described thus: Drug sensitivity (MIC), OprM (S104C). The method, then:
as §1, §2

For assay [3], the system named is Pseudomonas aeruginosa lacking OprM, plasmid with OprM (L313C). The assay can be described thus: Drug sensitivity (MIC), OprM (L313C). The method, then:
as §1, §2

Assay [4] has as its system Pseudomonas aeruginosa lacking OprM, plasmid with OprM (T105C). Put plainly: Drug sensitivity (MIC), OprM (T105C). On the procedure: as §1, §2
Assay [5] concerns Pseudomonas aeruginosa lacking OprM, plasmid with OprM (T106C). The assay can be described thus: Drug sensitivity (MIC), OprM (T106C). On the procedure:
as §1, §2

For assay [6], the system named is Pseudomonas aeruginosa lacking OprM, plasmid with OprM (Q312C). The assay can be described thus: Drug sensitivity (MIC), OprM (Q312C). On the procedure:
as §1, §2

The test system of assay [7] is Pseudomonas aeruginosa lacking OprM, plasmid with OprM (F317C). Put plainly: Drug sensitivity (MIC), OprM (F317C). On the procedure: as §1, §2
Assay [8] relates to Pseudomonas aeruginosa lacking OprM, plasmid with OprM (L103C). Put plainly: Drug sensitivity (MIC), OprM (L103C). On the procedure:
as §1, §2

Assay [9] has as its system Pseudomonas aeruginosa lacking OprM, plasmid with OprM (D318C). The assay can be described thus: Drug sensitivity (MIC), OprM (D318C). Conditions: for resistance of the bacteria to the drug (in words): OprM (D318C) mutant vs wild type; for MIC: Pseudomonas aeruginosa, OprM (D318C). The method, then:
as §1, §2

The subject of assay [10] is Pseudomonas aeruginosa lacking OprM, plasmid with OprM (G315C). The assay can be described thus: Drug sensitivity (MIC), OprM (G315C). The method, then: as §1, §2
Assay [11] has as its system Pseudomonas aeruginosa lacking OprM, plasmid with OprM (G320C). Put plainly: Drug sensitivity (MIC), OprM (G320C). On the procedure: as §1, §2
The subject of assay [12] is Pseudomonas aeruginosa lacking OprM, plasmid with OprM (A319C). The assay can be described thus: Drug sensitivity (MIC), OprM (A319C). The method, then:
as §1, §2

For assay [13], the system named is Pseudomonas aeruginosa lacking OprM, plasmid with OprM (R311C). Put plainly: Drug sensitivity (MIC), OprM (R311C). Conditions: for resistance of the bacteria to the drug (in words): OprM (311C) mutant vs wild type; for MIC: Pseudomonas aeruginosa, OprM (R311C). The method, then:
as §1, §2

Assay [14] has as its system Pseudomonas aeruginosa lacking OprM, plasmid with OprM (P100C). The assay can be described thus: Drug sensitivity (MIC), OprM (P100C). The method, then: as §1, §2
Assay [15] deals with Pseudomonas aeruginosa lacking OprM, plasmid with OprM (G107C). The assay can be described thus: Drug sensitivity (MIC), OprM (G107C). On the procedure:
as §1, §2

The test system of assay [16] is Pseudomonas aeruginosa lacking OprM, plasmid with OprM (S314C). Put plainly: Drug sensitivity (MIC), OprM (S314C). On the procedure: as §1, §2
The subject of assay [17] is Pseudomonas aeruginosa lacking OprM, plasmid with OprM (L316C). The assay can be described thus: Drug sensitivity (MIC), OprM (L316C). On the procedure: as §1, §2
Assay [18] relates to Pseudomonas aeruginosa lacking OprM, plasmid with OprM (wild type). Put plainly: Drug sensitivity (MIC), OprM (wild type). On the procedure: as §1, §2
Assay [19] has as its system Pseudomonas aeruginosa lacking OprM, plasmid with OprM (G101C). The assay can be described thus: Drug sensitivity (MIC), OprM (G101C). The method, then: as §1, §2
Assay [20] concerns Pseudomonas aeruginosa lacking OprM, plasmid with OprM (S108C). The assay can be described thus: Drug sensitivity (MIC), OprM (S108C). On the procedure: as §1, §2
Assay [21] has as its system Pseudomonas aeruginosa lacking OprM, plasmid with OprM (P109C). Put plainly: Drug sensitivity (MIC), OprM (P109C). Conditions: for MIC: Pseudomonas aeruginosa, OprM (P109C). On the procedure: as §1, §2

≈ marks a conversion by molar mass, not a printed value. Read-outs that look alike come from different tables or passages of the source.

The values below come from patent US7985410B2, “Method or agent for inhibiting the function of efflux pump Pseudomonas aeruginosa” (Tokai University, priority 2006, dated 2011).

One may read the MIC as the lowest concentration that inhibits growth of the organism.

On to `C[C@H]1[C@H](NC(=O)/C(=N\OC(C)(C)C(=O)O)c2csc(N)n2)C(=O)N1S(=O)(=O)O` [AZT, aztreonam], for which the MIC in assay [1] (read-out: MIC for AZT) is 3.13 µg/mL (≈ 7.19 µM); in assay [2] (read-out: MIC for AZT) it was 3.13 µg/mL (≈ 7.19 µM); in assay [3] (read-out: MIC for AZT), 3.13 µg/mL (≈ 7.19 µM); in [4] (read-out: MIC for AZT), 3.13 µg/mL (≈ 7.19 µM); in assay [5] (read-out: MIC for AZT) it was 3.13 µg/mL (≈ 7.19 µM); in assay [6] (read-out: MIC for AZT) it was 0.78 µg/mL (≈ 1.79 µM). Besides, the MIC came out at 1.54 µg/mL (≈ 3.54 µM) in assay [7] (read-out: MIC for AZT); 3.13 µg/mL (≈ 7.19 µM) in assay [8] (read-out: MIC for AZT); 0.39 µg/mL (≈ 0.896 µM) in assay [9] (read-out: MIC for AZT); 0.78 µg/mL (≈ 1.79 µM) in assay [10] (read-out: MIC for AZT); 1.54 µg/mL (≈ 3.54 µM) in [11] (read-out: MIC for AZT); 1.54 µg/mL (≈ 3.54 µM) in [12] (read-out: MIC for AZT). In addition, the MIC in assay [13] (read-out: MIC for AZT) came out at 0.39 µg/mL (≈ 0.896 µM); in assay [14] (read-out: MIC for AZT) it was 3.13 µg/mL (≈ 7.19 µM); in [15] (read-out: MIC for AZT) it was 3.13 µg/mL (≈ 7.19 µM); in assay [16] (read-out: MIC for AZT), 3.13 µg/mL (≈ 7.19 µM); in assay [17] (read-out: MIC for AZT) it was 3.13 µg/mL (≈ 7.19 µM); in [18] (read-out: MIC for AZT) it was 3.13 µg/mL (≈ 7.19 µM). Besides, the MIC in assay [19] (read-out: MIC for AZT), in assay [20] (read-out: MIC for AZT) and in assay [21] (read-out: MIC for AZT) was 3.13 µg/mL (≈ 7.19 µM) in each case. Further, the “resistance of the bacteria to the drug (in words)” value in assay [9] and in [13] was “markedly reduced resistance” throughout.

For the compound `CCn1cc(C(=O)O)c(=O)c2ccc(C)nc21` [NA, nalidixic acid], the MIC in [1] (read-out: MIC for NA) was 50 µg/mL (≈ 215 µM); in assay [2] (read-out: MIC for NA), 50 µg/mL (≈ 215 µM); in assay [3] (read-out: MIC for NA) it was 50 µg/mL (≈ 215 µM); in assay [4] (read-out: MIC for NA), 50 µg/mL (≈ 215 µM); in [5] (read-out: MIC for NA) it was 50 µg/mL (≈ 215 µM); in assay [6] (read-out: MIC for NA), 25 µg/mL (≈ 108 µM). The MIC worked out at 50 µg/mL (≈ 215 µM) in assay [7] (read-out: MIC for NA); 50 µg/mL (≈ 215 µM) in assay [8] (read-out: MIC for NA); 25 µg/mL (≈ 108 µM) in assay [9] (read-out: MIC for NA); 25 µg/mL (≈ 108 µM) in [10] (read-out: MIC for NA); 50 µg/mL (≈ 215 µM) in [11] (read-out: MIC for NA); 50 µg/mL (≈ 215 µM) in [12] (read-out: MIC for NA). Moreover, the MIC is 6.25 µg/mL (≈ 26.9 µM) in assay [13] (read-out: MIC for NA); 50 µg/mL (≈ 215 µM) in [14] (read-out: MIC for NA); 50 µg/mL (≈ 215 µM) in assay [15] (read-out: MIC for NA); 50 µg/mL (≈ 215 µM) in assay [16] (read-out: MIC for NA); 50 µg/mL (≈ 215 µM) in [17] (read-out: MIC for NA); 50 µg/mL (≈ 215 µM) in assay [18] (read-out: MIC for NA). In addition, the figures for the minimal inhibitory concentration (MIC) in [19] (read-out: MIC for NA), in assay [20] (read-out: MIC for NA) and in assay [21] (read-out: MIC for NA) were 50 µg/mL (≈ 215 µM), 50 µg/mL (≈ 215 µM) and 3.13 µg/mL (≈ 13.5 µM), respectively. Further, the “resistance of the bacteria to the drug (in words)” value in assay [9] was “did not reduce resistance”; in assay [13], “markedly reduced resistance”. For the same compound, the “drug sensitivity of the bacteria (in words)” value in assay [21] (OprM (P109C) mutant vs wild type) is “enhanced drug sensitivity”.
